Results from PubChem BioAssay AID1845215 (Molecular Pharmacology Branch, DTP, NCI, 2023).

Tested on: SW 1271 complex tumor spheroid viability
Assay: Anticancer human tumor SW 1271 cell line growth inhibition;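 further: spheroids exposed to agents for seven days before readout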;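 on viability, T/C: percent of DMSO vehicle control luminescence so 100% = vehicle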
Conditions: for IC50: curve of first compound; for viability, T/C: stronger effect = lower value
In short: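 Single agents and combinations were tested on spheroids built from tumor cells plus HUVEC and hMSC, at half-log dilutions starting at or near clinical Cmax, else 10 microM; final DMSO 0.25% (v/v).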

Q: `Cc1sc2c(c1C)C(c1ccc(Cl)cc1)=NC(CC(=O)Nc1ccc(O)cc1)c1nnc(C)n1-2` (stereo not given) + CC[C@@]1(O)C(=O)OCc2c1cc1n(c2=O)Cc2cc3c(CN(C)C)c(O)ccc3nc2-1 was tested. Which IC50 (second compound 0.003 µM) did it give?
A: The IC50 was 51.2 nM.

Q: What about the IC50 (second compound 0.00949 µM) of the same compound?
A: Its IC50 is 10.8 nM.

Q: And the IC50 (second compound 0.03 µM)?
A: The IC50 was < 9.49 nM.

Q: And the IC50 (second compound 0.0949 µM)?
A: Its IC50 is < 9.49 nM.

Q: And the IC50 (second compound 0.3 µM)?
A: Its IC50 is < 9.49 nM.

Q: What about the viability, T/C (second compound 0.003 µM, first compound 0.00949 µM) of the same compound?
A: The viability, T/C was 81.4%.

Q: And the viability, T/C (second compound 0.003 µM, first compound 0.03 µM)?
A: Its viability, T/C is 71.3%.

Q: What about the viability, T/C (second compound 0.003 µM, first compound 0.0949 µM) of the same compound?
A: Its viability, T/C is 25.5%.

Q: What about the viability, T/C (second compound 0.003 µM, first compound 0.3 µM) of the same compound?
A: The viability, T/C was 3.11%.

Q: And the viability, T/C (second compound 0.003 µM, first compound 0.949 µM)?
A: Its viability, T/C is 1.06%.

Q: And the viability, T/C (second compound 0.003 µM, first compound 3 µM)?
A: The viability, T/C was 1.11%.

Q: What about the viability, T/C (second compound 0.00949 µM, first compound 0.00949 µM) of the same compound?
A: The viability, T/C was 52.3%.

Q: And the viability, T/C (second compound 0.00949 µM, first compound 0.03 µM)?
A: Its viability, T/C is 32.1%.

Q: What about the viability, T/C (second compound 0.00949 µM, first compound 0.0949 µM) of the same compound?
A: Its viability, T/C is 12.8%.

Q: And the viability, T/C (second compound 0.00949 µM, first compound 0.3 µM)?
A: The viability, T/C was 2.4%.

Q: And the viability, T/C (second compound 0.00949 µM, first compound 0.949 µM)?
A: Its viability, T/C is 1.61%.

Q: What about the viability, T/C (second compound 0.00949 µM, first compound 3 µM) of the same compound?
A: Its viability, T/C is 1.61%.

Q: What about the viability, T/C (second compound 0.03 µM, first compound 0.00949 µM) of the same compound?
A: The viability, T/C was 25.2%.

Q: And the viability, T/C (second compound 0.03 µM, first compound 0.03 µM)?
A: Its viability, T/C is 24.4%.

Q: And the viability, T/C (second compound 0.03 µM, first compound 0.0949 µM)?
A: The viability, T/C was 14.6%.

Q: And the viability, T/C (second compound 0.03 µM, first compound 0.3 µM)?
A: Its viability, T/C is 2.67%.

Q: What about the viability, T/C (second compound 0.03 µM, first compound 0.949 µM) of the same compound?
A: The viability, T/C was 1.56%.

Q: What about the viability, T/C (second compound 0.03 µM, first compound 3 µM) of the same compound?
A: The viability, T/C was 1.13%.

Q: What about the viability, T/C (second compound 0.0949 µM, first compound 0.00949 µM) of the same compound?
A: The viability, T/C was 29%.

Q: What about the viability, T/C (second compound 0.0949 µM, first compound 0.03 µM) of the same compound?
A: Its viability, T/C is 24.5%.

Q: What about the viability, T/C (second compound 0.0949 µM, first compound 0.0949 µM) of the same compound?
A: The viability, T/C was 13.2%.

Q: And the viability, T/C (second compound 0.0949 µM, first compound 0.3 µM)?
A: Its viability, T/C is 3.31%.

Q: What about the viability, T/C (second compound 0.0949 µM, first compound 0.949 µM) of the same compound?
A: Its viability, T/C is 1.34%.

Q: And the viability, T/C (second compound 0.0949 µM, first compound 3 µM)?
A: The viability, T/C was 2.04%.

Q: And the viability, T/C (second compound 0.3 µM, first compound 0.00949 µM)?
A: Its viability, T/C is 16.9%.

Q: What about the viability, T/C (second compound 0.3 µM, first compound 0.03 µM) of the same compound?
A: The viability, T/C was 16.3%.

Q: And the viability, T/C (second compound 0.3 µM, first compound 0.0949 µM)?
A: Its viability, T/C is 7.74%.

Q: What about the viability, T/C (second compound 0.3 µM, first compound 0.3 µM) of the same compound?
A: The viability, T/C was 1.97%.

Q: What about the viability, T/C (second compound 0.3 µM, first compound 0.949 µM) of the same compound?
A: Its viability, T/C is 0.91%.

Q: And the viability, T/C (second compound 0.3 µM, first compound 3 µM)?
A: Its viability, T/C is 0.97%.

Q: Which results are given for `[2H]c1nc(C)nc([2H])c1-c1cc(NC[C@@H](C)c2cccc3c(C(=O)NC)ccnc23)ncn1` + Cn1nnc2c(C(N)=O)ncn2c1=O?
A: IC50 (second compound 1 µM): > 10000 nM; IC50 (second compound 3.16 µM): > 10000 nM; IC50 (second compound 10 µM): > 10000 nM; IC50 (second compound 31.6 µM): > 10000 nM; IC50 (second compound 100 µM): > 10000 nM; viability, T/C (second compound 1 µM, first compound 0.0316 µM): 91.1%; viability, T/C (second compound 1 µM, first compound 0.1 µM): 101%; viability, T/C (second compound 1 µM, first compound 0.316 µM): 95.1%; viability, T/C (second compound 1 µM, first compound 1 µM): 96.7%; viability, T/C (second compound 1 µM, first compound 3.16 µM): 98.9%; viability, T/C (second compound 1 µM, first compound 10 µM): 78.5%; viability, T/C (second compound 3.16 µM, first compound 0.0316 µM): 104%; viability, T/C (second compound 3.16 µM, first compound 0.1 µM): 103%; viability, T/C (second compound 3.16 µM, first compound 0.316 µM): 103%; viability, T/C (second compound 3.16 µM, first compound 1 µM): 98.9%; viability, T/C (second compound 3.16 µM, first compound 3.16 µM): 96.8%; viability, T/C (second compound 3.16 µM, first compound 10 µM): 84.8%; viability, T/C (second compound 10 µM, first compound 0.0316 µM): 101%; viability, T/C (second compound 10 µM, first compound 0.1 µM): 103%; viability, T/C (second compound 10 µM, first compound 0.316 µM): 92.4%; viability, T/C (second compound 10 µM, first compound 1 µM): 88.3%; viability, T/C (second compound 10 µM, first compound 3.16 µM): 87.2%; viability, T/C (second compound 10 µM, first compound 10 µM): 81.1%; viability, T/C (second compound 31.6 µM, first compound 0.0316 µM): 110%; viability, T/C (second compound 31.6 µM, first compound 0.1 µM): 99.3%; viability, T/C (second compound 31.6 µM, first compound 0.316 µM): 100%; viability, T/C (second compound 31.6 µM, first compound 1 µM): 98.7%; viability, T/C (second compound 31.6 µM, first compound 3.16 µM): 98.3%; viability, T/C (second compound 31.6 µM, first compound 10 µM): 80.3%; viability, T/C (second compound 100 µM, first compound 0.0316 µM): 93.1%; viability, T/C (second compound 100 µM, first compound 0.1 µM): 90.2%; viability, T/C (second compound 100 µM, first compound 0.316 µM): 86%; viability, T/C (second compound 100 µM, first compound 1 µM): 77.8%; viability, T/C (second compound 100 µM, first compound 3.16 µM): 73.8%; viability, T/C (second compound 100 µM, first compound 10 µM): 64.7%
